Legend:
Experiment in all cases: relative viability (nuclei count vs DMSO), 5 days (fraction); higher = more cells survive
XMD14-99 + Navitoclax = compound: CN1CCN(CC1)C2=CC(=C(C=C2)NC3=NC(=C(S3)C(=O)C4=C(C=CC=C4Cl)Cl)N)OC [XMD14-99] + CC1(C)CCC(c2ccc(Cl)cc2)=C(CN2CCN(c3ccc(C(=O)NS(=O)(=O)c4ccc(N[C@H](CCN5CCOCC5)CSc5ccccc5)c(S(=O)(=O)C(F)(F)F)c4)cc3)CC2)C1 [Navitoclax] (partner 0.5 µM)
In short: (§1)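 Lung cancer cell lines in 1536-well plates got either a single drug or a fixed anchor-drug dose together with five library-drug doses (not always all listed) in √10 steps, by pin tool, on the day after seeding. Nuclei were counted after 5 days, and relative viability is the treated-to-vehicle ratio of nuclei counts. Values are medians of duplicate plates.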

XMD14-99 + Foretinib = compound: CN1CCN(CC1)C2=CC(=C(C=C2)NC3=NC(=C(S3)C(=O)C4=C(C=CC=C4Cl)Cl)N)OC [XMD14-99] + COc1cc2c(Oc3ccc(NC(=O)C4(C(=O)Nc5ccc(F)cc5)CC4)cc3F)ccnc2cc1OCCCN1CCOCC1 [Foretinib] (partner 0.25 µM)
In short: as §1

AZD1208 = compound: N[C@@H]1CCCN(c2c(/C=C3\SC(=O)NC3=O)cccc2-c2ccccc2)C1 [AZD1208]
In short: (§2)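 Lung cancer cell lines received five library-drug doses (not always all listed) spaced by √10, pinned on vehicle-anchored 1536-well plates after an overnight stay at 37 °C. Five days later, with no medium change, nuclei were Hoechst-stained, imaged at 4× and counted with MetaXpress. Viability is treated-well nuclei relative to vehicle-well nuclei, as a median across plates. Passing plates had control CV below 25% and at least one doubling.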

XMD14-99 = compound: CN1CCN(CC1)C2=CC(=C(C=C2)NC3=NC(=C(S3)C(=O)C4=C(C=CC=C4Cl)Cl)N)OC [XMD14-99]
In short: as §2

Cell Line	relative viability (XMD14-99 + Navitoclax; first compound 0.08 µM)	relative viability (XMD14-99 + Navitoclax; first compound 0.8 µM)	relative viability (XMD14-99 + Navitoclax; first compound 2.53 µM)	relative viability (XMD14-99 + Navitoclax; first compound 8 µM)	relative viability (XMD14-99 + Foretinib; first compound 0.08 µM)	relative viability (XMD14-99 + Foretinib; first compound 0.8 µM)	relative viability (XMD14-99 + Foretinib; first compound 2.53 µM)	relative viability (XMD14-99 + Foretinib; first compound 8 µM)	relative viability (AZD1208; 0.08 µM)	relative viability (AZD1208; 0.253 µM)	relative viability (AZD1208; 0.8 µM)	relative viability (AZD1208; 2.53 µM)	relative viability (AZD1208; 8 µM)	relative viability (XMD14-99; 0.08 µM)	relative viability (XMD14-99; 0.8 µM)	relative viability (XMD14-99; 2.53 µM)	relative viability (XMD14-99; 8 µM)
NCI-H1793	0.424	0.411	0.461	0.386	0.704	0.608	0.644	0.641	1.02	1.2	0.794	1.01	0.673	0.881	0.892	0.839	0.688
NCI-H1734	0.805	0.816	0.765	0.654	0.821	0.826	0.793	0.7	0.887	0.989	0.874	0.841	0.647	0.969	0.969	0.922	0.754
LXF-289	0.903	0.913	0.884	0.836	0.964	0.949	0.923	0.898	1.05	1.06	1.01	1.03	1.12	1.02	0.964	0.976	0.889
H3255	0.542	0.654	0.493	0.32	0.956	0.9	0.737	0.709	1.04	1.02	0.938	0.934	0.947	0.955	0.957	0.802	0.684
201T	1.18	1.17	1.11	1.15	1.05	1.1	1.01	0.956	1.05	0.99	0.952	0.933	0.939	0.993	0.986	0.99	0.804
NCI-H2228	1.05	0.933	0.918	0.364	0.994	0.806	0.83	0.444	0.954	1.19	0.953	0.788	0.84	1.12	0.961	0.891	0.398
HOP-62	1.12	1.16	1.03	0.951	1.01	1.05	1.02	1.01	1.09	1.07	0.941	1.02	0.944	1.01	1	0.993	0.868
CAL-12T	1.28	1.14	1.21	1.16	1.09	1.06	0.876	1.02	1.01	1.13	0.967	1.01	1.05	0.974	1.01	0.933	0.692
NCI-H596	1.03	0.956	0.702	0.88	0.957	0.895	0.832	0.955	0.908	0.951	0.844	0.949	0.677	0.944	1.05	1.01	0.887
NCI-H1755	1.02	0.972	0.926	0.809	0.916	0.9	0.817	0.687	0.988	1.07	0.952	0.983	0.792	0.996	0.974	1.01	0.784
NCI-H2085	1.11	1.1	1.1	0.823	0.915	0.959	0.704	0.551	0.974	1.09	0.994	1.01	1.05	1	0.978	0.961	0.837
NCI-H2023	0.985	0.959	0.953	0.849	0.986	0.842	0.704	0.698	0.863	1.01	0.86	0.867	0.769	0.961	0.875	0.953	0.71
